PMC11521309, “A novel 4-aminoquinoline chemotype with multistage antimalarial activity and lack of cross-resistance with PfCRT and PfMDR1 mutants” (PLOS Pathogens, 2024)
Several values for one entry are separate records, joined by “and”; a condition that tells them apart may be missing. Identical values can stand only once. Like-named read-outs stand apart in the source and are kept apart here.

Experiments:
[1] = test system: P. falciparum 3D7 ABS parasites; experiment: ABS parasite survival assay, 72 h, flow cytometry; format: cell-based; conditions: Plasmodium falciparum
Protocol: (§1) P. falciparum ABS parasites were cultured at 3% hematocrit in human O^+ RBCs in RPMI-1640 media supplemented with 25 mM HEPES, 50 mg/L hypoxanthine, 2 mM L-glutamine, 0.21% sodium bicarbonate, 0.5% (w/v) AlbuMAXII (Invitrogen) and 10 μg/mL gentamycin. Culture flasks were kept in modular incubator chambers (Billups-Rothenberg) in a 5% O2, 5% CO2, and 90% N2 atmosphere at 37°C. Synchronized ring-stage parasites were obtained by two consecutive rounds of treatment with 5% D-sorbitol in 48-hour intervals. […] This was done by exposing cultures at 1% hematocrit and 0.3% parasitemia in 96-well plates in the presence of drugs in a two-fold 10 or 12-point serial dilution in duplicate along with drug-free controls. After a 72-hour incubation, parasite survival was assessed by flow cytometry on an iQue flow cytometer (Sartorius) using SYBR Green and MitoTracker Deep Red FM (Life Technologies) as nuclear stain and vital dye, respectively. Parasite survival was determined as a percentage relative to drug-free control. IC50 values were interpolated from log concentration versus response curves in Prism 9 (GraphPad Prism Software Inc.).

[2] = test system: P. falciparum Dd2 ABS parasites; experiment: ABS parasite survival assay, 72 h, flow cytometry; format: cell-based; conditions: Plasmodium falciparum
Protocol: as §1

[3] = test system: P. berghei PbGFP-Luccon liver stage; experiment: In vitro inhibition of liver stage infection of Huh-7 cells, bioluminescence; format: cell-based, Plasmodium berghei
Protocol: In vitro inhibition of Plasmodium liver stage infection was assessed using bioluminescence data from Huh-7 cells infected with a firefly-luciferase-expressing P. berghei line, PbGFP-Luccon, in the presence of various compound concentrations. […] One day before drug treatment and infection, 10^4 Huh-7 cells/well were seeded in 96-well plates. The medium was then replaced by an infection medium (culture medium supplemented with 50 μg/mL gentamycin and 0.8 μg/mL amphotericin B) containing desired concentrations of test compounds. Fresh sporozoites recovered from salivary glands of infected female Anopheles stephensi mosquitoes were added to seeded Huh-7 cells at a 1:1 proportion, followed by centrifugation at 1700g for 5 minutes and incubation for 46 hours at 37°C under 5% CO2. Compound toxicity against Huh-7 cells was assessed by measuring […] using the Alamar Blue assay (Invitrogen). IC50 values were calculated using nonlinear regression analysis (GraphPad Prism version 9).

[4] = test system: PfCRT variants (7G8, 7G8^F145I, 7G8^C350R); experiment: SSM-based electrophysiology (SURFE2R N1) of PfCRT proteoliposomes; format: biochemical, Plasmodium falciparum; conditions: 10 μM, distinct PfCRT isoforms
Protocol: Solid Supported Membrane (SSM)-based electrophysiological measurements were performed using SURFE^2R N1 technology (Nanion Technologies, Inc.) according to published protocols. Briefly, sensors were coated with 1-octadecanethiol (Sigma-Aldrich), rinsed, and 1,2-diphytanoyl-sn-glycero-3-phosphocholine (Avanti Polar Lipids, Inc) was added. Immediately, the sensor was filled with 50 μL non-activating buffer (10 mM Tris-MES, pH 5.5) and PfCRT-containing proteoliposomes (PLs). To generate a K^+ diffusion potential-driven ΔΨ, valinomycin was included at a final concentration of 80 nM [34, 35]. The activating solution (10 mM Tris-MES, pH 5.5 containing either 10 μM CQ, PPQ, LDT-623, pyrimethamine, or atovaquone) was applied using a single-solution exchange protocol (activating buffer incubation for 1 second). Each measurement was repeated at least twice employing at least three different sensors. Peak currents for PfCRT were corrected by subtracting the peak currents recorded with control liposomes (lacking this transporter). To acquire the PfCRT-elicited charge (Coulomb) movement associated with drug transport, the area under the curve (current as a function of time) was analyzed with GraphPad Prism version 10.

[5] = test system: P. falciparum Dd2-Pol δ parasites; experiment: Single-step in vitro resistance selection; format: cell-based, Plasmodium falciparum
Protocol: Resistance to LDT-623 was assessed using single-step in vitro resistance selection protocols. […] Dd2-Pol δ is a hypermutable line with two point mutations in DNA polymerase δ that compromise its proofreading activity Cultures were monitored daily by thin blood smears until live parasites were no longer detectable. Drug-containing media was changed daily until parasites cleared, and every other day thereafter. Cultures were passaged once weekly by reducing the volume by 25% and replacing 1/3 of RBCs. Recrudescence monitoring was carried out twice a week by thin blood smears for 60 days. In the event of recrudescence, parasite susceptibility to LDT-623 was tested as described above.

P. falciparum Dd2^I218F = test system: P. falciparum Dd2^I218F; set-up: key to Phenotype, Dd2^I218F: S: sensitive; R: resistant; conditions: cited from earlier work
P. falciparum 7G8^7G8 = test system: P. falciparum 7G8^7G8; set-up: key to Phenotype, 7G8^7G8: S: sensitive; R: resistant; conditions: cited from earlier work
P. falciparum 7G8^F145I = test system: P. falciparum 7G8^F145I; set-up: key to Phenotype, 7G8^F145I: S: sensitive; R: resistant; conditions: cited from earlier work
P. falciparum NF10^YF = test system: P. falciparum NF10^YF; set-up: method as in ref 1 Veiga et al. 2016; conditions: means ± SEM, N 6; ref 1 Veiga et al. 2016; read-out: IC50 NF10YF; cited from earlier work
[6] = Dd2I218F, mean ± SEM, ref 2 (Dhingra et al., 2019)

Compound: COc1cc2nccc(Nc3cccc(Oc4ccccc4)c3)c2cc1OC [LDT-623]
- IC50 ([1]; 3D7, ABS parasites, N = 3, read-out: IC50 3D7): 130 ± 10 nM
- IC50 ([1]; 3D7, CQ-sensitive strain, read-out: IC50 3D7): 127 nM
- IC50 ([1]; 3D7, read-out: IC50 3D7): 126.6 ± 0.1 nM
- IC50 ([2]; DD2, ABS parasites, N = 3, read-out: IC50 Dd2): 300 ± 30 nM
- IC50 ([2]; DD2, CQ-resistant strain, read-out: IC50 Dd2): 365 nM
- IC50 ([2]; DD2, read-out: IC50 Dd2): 365 ± 17.5 nM
- % Infection ([3]; 0.01 µM, Average): 105.58%
- % Infection ([3]; 0.01 µM, Rep #1, Rep #2 singly, DMSO = 100): 99.71% and 111.44%
- % Infection ([3]; 0.10 µM, Average): 109.90%
- % Infection ([3]; 0.10 µM, Rep #1, Rep #2 singly, DMSO = 100): 116.90% and 102.90%
- % Infection ([3]; 0.50 µM, Average): 89.46%
- % Infection ([3]; 0.50 µM, Rep #1, Rep #2 singly, DMSO = 100): 98.58% and 80.35%
- % Infection ([3]; 1.00 µM, Average): 47.89%
- % Infection ([3]; 1.00 µM, Rep #1, Rep #2 singly, DMSO = 100): 59.84% and 35.94%
- % Infection ([3]; 1.50 µM, Average): 16.43%
- % Infection ([3]; 1.50 µM, Rep #2 only, DMSO = 100): 16.43%
- % Infection ([3]; 2.00 µM, Average): 10.50%
- % Infection ([3]; 2.00 µM, Rep #1, Rep #2 singly, DMSO = 100): 13.79% and 7.22%
- % Infection ([3]; 3.00 µM, Average): 3.61%
- % Infection ([3]; 3.00 µM, Rep #1, Rep #2 singly, DMSO = 100): 5.04% and 2.18%
- % Infection ([3]; 4.00 µM, Average): 3.01%
- % Infection ([3]; 4.00 µM, Rep #1 only, DMSO = 100): 3.01%
- inhibition at 1 µM ([3]; Plasmodium berghei, Huh-7, 1 μM, read-out: inhibition of hepatic infection): 52.1%
- IC50 ([3]; Plasmodium berghei, Huh-7 cells, P. berghei sporozoites, 48h, N = 2, read-out: IC50 hepatic stage infection): 983 nM
- PfCRT-specific currents [4]: elicits the same magnitude of currents as CQ and PPQ
- recrudescence under constant drug pressure ([5]; 3 × IC50 (1 μM), 1 × 10^9 parasites, 60 days): No parasite recrudescence
- log minimum inoculum of resistance (MIR) ([5]; constant drug pressure): higher than 9
- day of recrudescence ([5]; drug pressure removed after day 7, both flasks): 21 days
- IC50 of recrudescent bulk parasites vs Dd2-Polδ parent ([5]; either flask): no difference in IC50

Compound: CCN(CC)CCCC(C)Nc1ccnc2cc(Cl)ccc12 (stereo not shown) [CQ, chloroquine]
- IC50 (P. falciparum Dd2^I218F; [6]): 36.7 ± 4.3 nM
- IC90 (P. falciparum Dd2^I218F; [6]): 85.3 ± 4.9 nM
- Phenotype, Dd2^I218F (P. falciparum Dd2^I218F; ref [19],[20],[51]): S
- IC50 (P. falciparum 7G8^7G8; 7G87G8, mean ± SEM, ref 3 (Kim et al., 2019)): 83 ± 7.5 nM
- Phenotype, 7G8^7G8 (P. falciparum 7G8^7G8; ref [19],[20],[51]): R
- IC50 (P. falciparum 7G8^F145I; 7G8F145I, mean ± SEM, ref 3 (Kim et al., 2019)): 7.3 ± 0.4 nM
- Phenotype, 7G8^F145I (P. falciparum 7G8^F145I; ref [19],[20],[51]): S
- IC50 (P. falciparum NF10^YF): 347 ± 24.4 nM
